From patent publication US20260083134A1, “MEANS AND METHODS FOR CONTROLLING PATHOGENS AND PESTS IN PLANTS” (APHEA.BIO NV, priority 2020, published 2026)

Columns and labels:
Assay type in all cases: cell-based
[1] = tested on: Zymoseptoria tritici
[2] = tested on: Fusarium graminearum; conditions: compound identified in active HPLC fraction; active when halo diameter superior to 5 mm
[3] = tested on: Puccinia striiformis; assay: Puccinia striiformis liquid-based screening assay of extract fractions; conditions: compound identified in active HPLC fraction; active when percentage of inhibition superior to 50%

Row | Compound | Active against: [1] | Active against: [2] | Active against: [3]
1 | Albofungin | Z. tritici | F. graminearum | P. striiformis
2 | C=C/C(C)=C/[C@H](C)C(=O)C[C@H](O)CC1CC(=O)NC(=O)C1 [Streptimidone] | Z. tritici | F. graminearum | P. striiformis
3 | C[C@@H]1C/C=C/C=C/C=C/C=C/[C@H](O[C@@H]2O[C@H](C)[C@@H](O)[C@H](N)[C@@H]2O)C[C@@H]2O[C@](O)(C[C@@H](O)C[C@H]3O[C@@H]3/C=C/C(=O)O1)C[C@H](O)[C@H]2C(=O)O [Pimaricin/Natamycin, Pimaricin, reference compound] | Z. tritici | F. graminearum | P. striiformis
4 | Enactin Ia/Ib | Z. tritici | F. graminearum | P. striiformis
5 | Lauramidopropyl betaine | Z. tritici | F. graminearum | P. striiformis
6 | CCCCCCCCCCCCCC(=O)NCCC[N+](C)(C)CC(=O)[O-] [N-Myristylamidopropyl-N,N-dimethylbetaine] | Z. tritici | F. graminearum | P. striiformis
